Patent US20240158446A1, “CYCLIC COMPOUND HAVING SELECTIVE INHIBITORY ACTION ON KRAS OVER HRAS AND NRAS” (CHUGAI SEIYAKU KABUSHIKI KAISHA, priority 2021, published 2024)
Like-named read-outs stand apart in the source and are kept apart here. *1 amine or outer side, *2 acyl side, *3 side chain or, on linkers, in order; H or OH if unused. Where a SMILES comes first, the peptide text is derived from it. Bridges are numbered along the chain shown (N, C = ends). [ ]: non-standard residue; d: D form. The star is where a group is joined. hPhe(3,5-F2-4-CF3) = N[C@@H](CCc1cc(F)c(C(F)(F)F)c(F)c1)C(=O)O; hPhe(3-Cl-4-CF3) = N[C@@H](CCc1ccc(C(F)(F)F)c(Cl)c1)C(=O)O; NPrPhe(4-CF3) = CCCN[C@@H](Cc1ccc(C(F)(F)F)cc1)C(=O)O; X30 = C=CCCN([C@@H](Cc1ccc(C)cc1)C(=O)[*:2])[*:1]; Abu(4,4,4-F3) = N[C@@H](CC(F)(F)F)C(=O)O; NMeGly(cPent) = CN[C@H](C(=O)O)C1CCCC1; NMeD = CN[C@@H](CC(=O)O)C(=O)O; Ac4c(3-oxa) = NC1(C(=O)O)COC1; NMeL = CN[C@@H](CC(C)C)C(=O)O; Morpholide = C1CN(*)CCO1; NMeA = CN[C@@H](C)C(=O)O; Ac5c = NC1(C(=O)O)CCCC1; Aze = O=C(O)[C@@H]1CCN1; Ac3c = NC1(C(=O)O)CC1; NEtG = CCNCC(=O)O; Sar = CNCC(=O)O

Legend:
[1] = target: GDP-bound KRAS wild-type protein (Homo sapiens, UniProt P01116); experiment: Binding to KRAS by surface plasmon resonance (SPR), Single Cycle Kinetics; settings: GDP-bound KRAS wild-type protein, read-out: KRAS KD
[2] = target: GDP-bound NRAS wild-type protein (Homo sapiens, UniProt P01111); experiment: Binding to NRAS by surface plasmon resonance (SPR), Single Cycle Kinetics; settings: for NRAS/KRAS (ratio of KD value for NRAS to KD value for KRAS) / NRAS/KRAS (ratio of KD value with respect to NRAS to KD value with respect to KRAS): SPR, GDP-bound NRAS wild-type protein vs GDP-bound KRAS wild-type protein; for NRAS/KRAS (ratio of KD value with respect to GDP-bound NRAS wild-type protein to KD value with respect to KRAS): SPR KD ratio NRAS/KRAS, class symbols
[3] = target: GDP-bound HRAS wild-type protein (Homo sapiens, UniProt P01112); experiment: Binding to HRAS by surface plasmon resonance (SPR), Single Cycle Kinetics; settings: for HRAS/KRAS (ratio of KD value for HRAS to KD value for KRAS) / HRAS/KRAS (ratio of KD value with respect to HRAS to KD value with respect to KRAS): SPR, GDP-bound HRAS wild-type protein vs GDP-bound KRAS wild-type protein; for HRAS/KRAS (ratio of KD value with respect to GDP-bound HRAS wild-type protein to KD value with respect to KRAS): SPR KD ratio HRAS/KRAS, class symbols
[4] = SPR Single Cycle Kinetics, 1:1 binding model

Sequence of GDP-bound KRAS wild-type protein (P01116 whole entry): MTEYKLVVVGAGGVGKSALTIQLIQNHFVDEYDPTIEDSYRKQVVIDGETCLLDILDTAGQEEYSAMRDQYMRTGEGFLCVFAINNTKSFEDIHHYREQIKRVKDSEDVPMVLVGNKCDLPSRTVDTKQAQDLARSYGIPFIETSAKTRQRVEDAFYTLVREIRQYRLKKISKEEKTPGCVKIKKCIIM
Sequence of GDP-bound HRAS wild-type protein (P01112 whole entry): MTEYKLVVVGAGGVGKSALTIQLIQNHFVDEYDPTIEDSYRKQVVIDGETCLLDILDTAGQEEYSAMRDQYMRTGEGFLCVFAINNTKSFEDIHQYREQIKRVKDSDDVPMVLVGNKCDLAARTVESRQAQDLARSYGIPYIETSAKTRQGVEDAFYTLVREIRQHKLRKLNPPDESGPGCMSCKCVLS
Sequence of GDP-bound NRAS wild-type protein (P01111 whole entry): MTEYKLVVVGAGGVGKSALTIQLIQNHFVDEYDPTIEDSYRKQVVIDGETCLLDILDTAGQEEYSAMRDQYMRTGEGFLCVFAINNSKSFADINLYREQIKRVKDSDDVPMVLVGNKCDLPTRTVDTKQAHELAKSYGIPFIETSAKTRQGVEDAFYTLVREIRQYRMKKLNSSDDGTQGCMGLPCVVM

| Compound | NRAS/KRAS (ratio of KD value for NRAS to KD value for KRAS) [2] | HRAS/KRAS (ratio of KD value for HRAS to KD value for KRAS) [3] | Kd [1, 4] [nM] | other results |
| --- | --- | --- | --- | --- |
| CCO[C@@H]1C[C@H]2C(=O)NC3(CCC3)C(=O)N(C)[C@@H](C3CCCC3)C(=O)N(C)[C@H](C(=O)N(C)C)CC(=O)N(C)[C@@H](C)C(=O)N[C@@H]([C@@H](C)CC)C(=O)N(C)CC(=O)N(C)[C@H]3C/C=C\CCN(C3=O)[C@@H](Cc3ccc(C(F)(F)F)cc3)C(=O)N(C)CC(=O)N[C@@H](CCc3cc(F)c(C(F)(F)F)c(F)c3)C(=O)N2C1 [PP1108, (2S,8S,12R,14S,20S,23S,27S,30S,36S,38Z)-20-cyclopentyl-8-[2-[3,5-difluoro-4-(trifluoromethyl)phenyl]ethyl]-12-ethoxy-N,N,4,19,22,26,27,32,35-nonamethyl-30-[(1S)-1-methylpropyl]-3,6,9,15,18,21,25,28,31,34,42-undecaoxo-2-[[4-(trifluoromethyl)phenyl]methyl]spiro[1,4,7,10,16,19,22,26,29,32,35-undecazatricyclo[34.5.1.0^10,14]dotetracont-38-ene-17,1′-cyclobutane]-23-carboxamide] | A (a compound having 10 or more and less than 20 is denoted as A) | A (a compound having 10 or more and less than 20 is denoted as A) | – | Kd ([1]; SPR, Single Cycle Kinetics): 0.033 nM |
| CCO[C@@H]1C[C@H]2C(=O)NC3(CCC3)C(=O)N(C)[C@@H](C(CC)CC)C(=O)N(C)[C@H](C(=O)N(C)C)CC(=O)N(C)[C@@H](CC(C)C)C(=O)N[C@@H]([C@@H](C)CC)C(=O)N(C)CC(=O)N(C)[C@H]3C/C=C\CCN(C3=O)[C@@H](Cc3ccc(F)cc3)C(=O)N(C)CC(=O)N[C@@H](CCc3cc(F)c(C(F)(F)F)c(F)c3)C(=O)N2C1 [PP1519] | – | – | – | Kd ([1]; SPR, Single Cycle Kinetics, 1:1 binding model): 0.41 nM; NRAS/KRAS (ratio of KD value for NRAS to KD value for KRAS) ([2]; KD ratio class): A (a compound having 10 or more and less than 20 is denoted as A); HRAS/KRAS (ratio of KD value for HRAS to KD value for KRAS) ([3]; KD ratio class): A (a compound having 10 or more and less than 20 is denoted as A) |
| C=CCCN1C(=O)[C@@H]2CCN2C(=O)[C@H](C)N(C)C(=O)[C@H]([C@@H](C)CC)NC(=O)[C@H](CC(C)C)N(C)C(=O)C[C@@H](C(=O)N2CCOCC2)N(C)C(=O)[C@H](C2CCCC2)N(C)C(=O)C2(CCCC2)NC(=O)[C@@H]2CCCN2C(=O)[C@H](CCc2ccc(C(F)(F)F)c(Cl)c2)NC(=O)CN(C)C(=O)[C@@H]1Cc1ccc(C)cc1 [PP0089] ([NMeL]I[NMeA][Aze][X30][Sar][hPhe(3-Cl-4-CF3)]P[Ac5c][NMeGly(cPent)][NMeD]-Morpholide; lactam N-11) | C (A compound having a KD ratio of 0.1 or more and less than 3 is denoted as C) | B (a compound having 3 or more and less than 10 is denoted as B) | 0.17 | – |
| CCCCO[C@@H]1C[C@H]2C(=O)NC3(CCC3)C(=O)N(C)[C@@H](C3CCCC3)C(=O)N(C)[C@H](C(=O)N3CCOCC3)CC(=O)N(C)[C@@H](CC(C)C)C(=O)N[C@@H]([C@@H](C)CC)C(=O)N(C)CC(=O)N(C)[C@H]3CCCCN(C3=O)[C@@H](Cc3ccc(C(F)(F)F)cc3)C(=O)N(C)CC(=O)N[C@@H](CCc3cc(F)c(C(F)(F)F)c(F)c3)C(=O)N2C1 [PP0999] | C (A compound having a KD ratio of 0.1 or more and less than 3 is denoted as C) | B (a compound having 3 or more and less than 10 is denoted as B) | – | Kd ([1]; SPR, Single Cycle Kinetics): 0.11 nM |
| CCCN1C(=O)[C@@H]2CCN2C(=O)[C@H](C)N(C)C(=O)[C@H](CC(F)(F)F)NC(=O)[C@H](CC(C)C)N(C)C(=O)C[C@@H](C(=O)N2CCOCC2)N(C)C(=O)[C@H](C2CCCC2)N(C)C(=O)C2(CCCC2)NC(=O)[C@@H]2CCCN2C(=O)[C@H](CCc2ccc(C(F)(F)F)c(Cl)c2)NC(=O)CN(C)C(=O)[C@@H]1Cc1ccc(C(F)(F)F)cc1 [PP0270] ([NMeL][Abu(4,4,4-F3)][NMeA][Aze][NPrPhe(4-CF3)][Sar][hPhe(3-Cl-4-CF3)]P[Ac5c][NMeGly(cPent)][NMeD]-Morpholide; lactam N-11) | C (A compound having a KD ratio of 0.1 or more and less than 3 is denoted as C) | B (a compound having 3 or more and less than 10 is denoted as B) | 0.76 | – |
| CCC[C@H]1C(=O)N[C@@H]([C@@H](C)CC)C(=O)N(C)CC(=O)N(C)[C@H]2C/C=C\CCN(C2=O)[C@@H](Cc2ccc(C(F)(F)F)cc2)C(=O)N(C)CC(=O)N[C@@H](CCc2ccc(C(F)(F)F)c(Cl)c2)C(=O)N2CCOC[C@H]2C(=O)NC2(CC(C)(C)C2)C(=O)N(C)[C@@H](C(CC)CC)C(=O)N(C)[C@H](C(=O)N(C)C)CC(=O)N1C [PP2929] | – | – | 2.3 | NRAS/KRAS (ratio of KD value with respect to GDP-bound NRAS wild-type protein to KD value with respect to KRAS) [2]: AA (a compound having 20 or more is denoted as AA); HRAS/KRAS (ratio of KD value with respect to GDP-bound HRAS wild-type protein to KD value with respect to KRAS) [3]: A (a compound having 10 or more and less than 20 is denoted as A) |
| CCCN1C(=O)CN(C)C(=O)[C@@H]2CCN2C(=O)[C@H]([C@@H](C)CC)NC(=O)[C@H](CC(C)C)N(C)C(=O)C[C@@H](C(=O)N2CCOCC2)N(C)C(=O)[C@H](C2CCCC2)N(C)C(=O)C2(COC2)NC(=O)[C@@H]2CCCN2C(=O)[C@H](CCc2cc(F)c(C(F)(F)F)c(F)c2)NC(=O)CN(C)C(=O)[C@@H]1Cc1ccc(C(F)(F)F)cc1 [PP0782] ([NMeL]I[Aze][Sar][NPrPhe(4-CF3)][Sar][hPhe(3,5-F2-4-CF3)]P[Ac4c(3-oxa)][NMeGly(cPent)][NMeD]-Morpholide; lactam N-11) | – | – | 2.3 | NRAS/KRAS (ratio of KD value with respect to NRAS to KD value with respect to KRAS) [2]: B (a compound having 3 or more and less than 10 is denoted as B); HRAS/KRAS (ratio of KD value with respect to HRAS to KD value with respect to KRAS) [3]: B (a compound having 3 or more and less than 10 is denoted as B) |
| CCC[C@H]1C(=O)N[C@@H]([C@@H](C)CC)C(=O)N(C)CC(=O)N(C)[C@H]2C/C=C\CCN(C2=O)[C@@H](Cc2ccc(C)cc2)C(=O)N(C)CC(=O)N[C@@H](CCc2ccc(CC)c(Cl)c2)C(=O)N2C[C@H](OCC)C[C@H]2C(=O)NC2(CC(C)(C)C2)C(=O)N(C)[C@@H](C2CCCC2)C(=O)N(C)[C@H](C(=O)N(C)C)CC(=O)N1C [PP2778] | – | – | 0.62 | NRAS/KRAS (ratio of KD value with respect to GDP-bound NRAS wild-type protein to KD value with respect to KRAS) [2]: A (a compound having 10 or more and less than 20 is denoted as A); HRAS/KRAS (ratio of KD value with respect to GDP-bound HRAS wild-type protein to KD value with respect to KRAS) [3]: A (a compound having 10 or more and less than 20 is denoted as A) |
| CC[C@H](C)[C@@H]1NC(=O)[C@H](CC(C)C)N(C)C(=O)C[C@@H](C(=O)N2CCOCC2)N(C)C(=O)[C@H](C2CCCCC2)N(C)C(=O)C2(CCCC2)NC(=O)[C@@H]2CCCN2C(=O)[C@H](CCc2cc(F)c(C(F)(F)F)c(F)c2)NC(=O)CN(C)C(=O)[C@H](Cc2ccc(C(F)(F)F)cc2)N2CCCCC[C@@H](C2=O)N(C)C(=O)CN(C)C1=O [PP0505] | – | – | 10 | NRAS/KRAS (ratio of KD value with respect to NRAS to KD value with respect to KRAS) [2]: B (a compound having 3 or more and less than 10 is denoted as B); HRAS/KRAS (ratio of KD value with respect to HRAS to KD value with respect to KRAS) [3]: B (a compound having 3 or more and less than 10 is denoted as B) |
| CCCN1C(=O)CN(C)C(=O)CN(C)C(=O)[C@H]([C@@H](C)CC)NC(=O)[C@H](CC(C)C)N(C)C(=O)C[C@@H](C(=O)N2CCOCC2)N(C)C(=O)[C@H](C2CCCC2)N(C)C(=O)C2(CCCC2)NC(=O)CN(CC)C(=O)[C@H](CCc2ccc(C(F)(F)F)c(Cl)c2)NC(=O)CN(C)C(=O)[C@@H]1Cc1ccc(C(F)(F)F)cc1 [PP0144] ([NMeL]I[Sar][Sar][NPrPhe(4-CF3)][Sar][hPhe(3-Cl-4-CF3)][NEtG][Ac5c][NMeGly(cPent)][NMeD]-Morpholide; lactam N-11) | B (a compound having 3 or more and less than 10 is denoted as B) | C (A compound having a KD ratio of 0.1 or more and less than 3 is denoted as C) | 0.24 | – |
| CCO[C@@H]1C[C@H]2C(=O)NC3(CC(C)(C)C3)C(=O)N(C)[C@@H](C3CCCC3)C(=O)N(C)[C@H](C(=O)N(C)CC)CC(=O)N(C)[C@@H](COC)C(=O)N[C@@H]([C@@H](C)CC)C(=O)N(C)CC(=O)N(C)[C@H]3C/C=C\CCN(C3=O)[C@@H](Cc3ccc(C(F)(F)F)cc3)C(=O)N(C)CC(=O)N[C@@H](CCc3ccc(Cl)c(Cl)c3)C(=O)N2C1 [PP2835] | – | – | 0.19 | NRAS/KRAS (ratio of KD value with respect to GDP-bound NRAS wild-type protein to KD value with respect to KRAS) [2]: A (a compound having 10 or more and less than 20 is denoted as A); HRAS/KRAS (ratio of KD value with respect to GDP-bound HRAS wild-type protein to KD value with respect to KRAS) [3]: A (a compound having 10 or more and less than 20 is denoted as A) |
| CCCN1C(=O)CN(C)C(=O)CN(C)C(=O)[C@H]([C@@H](C)CC)NC(=O)[C@H](CC(C)C)N(C)C(=O)C[C@@H](C(=O)N2CCOCC2)N(C)C(=O)[C@H](C2CCCC2)N(C)C(=O)C2(CC2)NC(=O)[C@@H]2CCCN2C(=O)[C@H](CCc2ccc(C(F)(F)F)c(Cl)c2)NC(=O)CN(C)C(=O)[C@@H]1Cc1ccc(C(F)(F)F)cc1 [PP0229] ([NMeL]I[Sar][Sar][NPrPhe(4-CF3)][Sar][hPhe(3-Cl-4-CF3)]P[Ac3c][NMeGly(cPent)][NMeD]-Morpholide; lactam N-11) | B (a compound having 3 or more and less than 10 is denoted as B) | B (a compound having 3 or more and less than 10 is denoted as B) | 0.25 | – |
